Test results from EP1509285B1, “SYNERGISTIC COMPOSITION OF TRANS-TETRACOS-15-ENOIC ACID AND APOCYNIN AND USE THEREOF” (COUNCIL OF SCIENTIFIC AND INDUSTRIAL RESEARCH, priority 2002, dated 2003).

Key:
[1] = tested on: D-Galactosamine (GAIN) induced hepatic injury; experiment: Hepatoprotective activity (in vivo) against D-Galactosamine induced hepatic injury; details: rats; for Hepatic parameters Glutathione / Hepatic parameters Lipid peroxidation / Serum parameters ALP / Serum parameters Bilirubin / Serum parameters Triglycerides / Serum parameters GOT / Serum parameters GPT: 50 mg kg-1 p.o. at 48 h, 24h, 2 h before and 6 h after GalN 300 mg kg-1 s.c., mean ± S.E.; for Serum parameters GOT / Serum parameters GPT: unit is µmole pyruvate/min/L; for hepatoprotective activity percent, ALP / hepatoprotective activity percent, Bilirubin / hepatoprotective activity percent, GOT / hepatoprotective activity percent, GPT / hepatoprotective activity percent, Glutathione / hepatoprotective activity percent, Lipid peroxidation / hepatoprotective activity percent, Triglycerides: GalN, 50 mg kg-1 p.o., H = [1-(TC-V/VC-V)] × 100
Experimental: i. Animals: The pharmacological studies are conducted on Wistar albino rats (150-180g) and Swiss albino mice (25-30g) of either sex, colony - bred in the Institute's animal house. After procurement, all the animals are divided into different groups and are left for one week for acclimatization to experimentation room and are maintained on standard conditions (23±2°C, 60-70 % relative humidity and 12 h photo period). The animals are fed with standard rodents pellet diet and water ad libitum. There are six animals in each group except for general behaviour and acute toxicity studies where ten animals are used in each group.
D-Galactosamine: It is one of the toxins that induce hepatic inflammatory conditions in the rat liver that clinically resembles to viral hepatitis. The mechanism of GalN induced liver injury has been extensively examined and this model is now accepted as one of the authentic systems of liver damage (Bauer et. al., 1974, Al-Tuwaijiri et. al., 1981). (Table1)
Hepatic damage is produced by injecting GalN (300 mg.kg^-1) subcutaneously in normal saline. The control animals received the equal volume of vehicle.
Freshly prepared suspension (1%, w/v) in 0.2% gum acacia in normal saline is used for all the experiments except for toxicity studies where (10 %, w/v) suspension is used. Silymarin suspension (1%, w/v) in 0.2 % gum acacia is used as a reference standard (positive control).
Blood is collected from orbital sinus in all the animals 18 h after last treatment and serum separated for different estimations. All the animals are then killed by decapitation, their livers are quickly excised, cleaned of adhering tissue, weighed and homogenised in phosphate buffer saline for the analysis of hepatic parameters. A portion of the liver is processed for histopathological studies (Table 1)
• GPT and GOT: Pyruvate formed by transamination reaction is determined spectrophotometrically after reaction with 2,4-dinitrophenylhydrazine (Reitman and Frankel, 1957). • ALP : p-nitrophenol formed in alkaline medium is measured spectrophotometrically using p-nitrophenyl phosphate as substrate (Walter and Schutt, 1974). • Bilirubin : Total bilirubin is measured by diazotization reaction with NaNO2 (Malloy and Evelyn, 1937) • Triglycerides : Triglycerides from serum are extracted with isopropanol and sopanified with KOH. The liberated glycerol is converted to formaldehyde by periodate and determined after reaction with acetyl acetone. Triolein is used as standard (Neri and Firings, 1973). • Glutathione: It is determined after deproteination by reaction with DTNB (Ellman 1959 as modified by David 1987). • Lipid peroxidation: Thiobarbituric acid reacting substances are determined spectrophotometrically at 535 nm. Buege. and Aust. (1978).
Hepatoprotective activity (H) is calculated by the following equation: H = [1-(TC-V/VC-V)] × 100 [formula]
Where TC, VC, and V are drug + toxin, vehicle + toxin and vehicle treated groups of animals respectively.

[2] = tested on: galactosamine, paracetamol and CCl4 as hepatotoxins; experiment: Earlier RRL Jammu study: hepatoprotective effect against galactosamine, paracetamol and CCl4 as hepatotoxins, silymarin as reference; type: in vivo; details: synthesized constituent; silymarin as reference material

## CCCCCCCC/C=C/CCCCCCCCCCCCCC(=O)O [TCA, trans-tetracos-15-enoic acid]
[1]
  Hepatic parameters Glutathione: 5.39±0.43 µ mole GSH/g liver
  Hepatic parameters Lipid peroxidation: 42.12±3.93 n moles MDA/g liver
  Serum parameters ALP: 44.16±2.87 µ mole of p-nitrophenol formed/min/ L
  Serum parameters Bilirubin: 0.29±0.03 mg %
  Serum parameters Triglycerides: 29.78±2.82 mg %
  Serum parameters GOT: 421.64±30.36 Units
  Serum parameters GPT: 758.59±40.86 Units
  hepatoprotective activity percent, ALP: (59.67) percent
  hepatoprotective activity percent, Bilirubin: (66.66) percent
  hepatoprotective activity percent, GOT: (52.03) percent
  hepatoprotective activity percent, GPT: (53.74) percent
  hepatoprotective activity percent, Glutathione: (38.84) percent
  hepatoprotective activity percent, Lipid peroxidation: (59.35) percent
  hepatoprotective activity percent, Triglycerides: (50.99) percent
[2]
  hepatoprotective effect against galactosamine, paracetamol and CCl4 as hepatotoxins: dose related hepatoprotective effect

## COc1cc(C(C)=O)ccc1O [APO, Apocynin]
[1]
  Hepatic parameters Glutathione: 4.52±0.49 µ mole GSH/g liver
  Hepatic parameters Lipid peroxidation: 48.71±3.69 n moles MDA/g liver
  Serum parameters ALP: 37.73±1.64 µ mole of p-nitrophenol formed/min/ L
  Serum parameters Bilirubin: 0.41±0.02 mg %
  Serum parameters Triglycerides: 31.85±3.74 mg %
  Serum parameters GOT: 509.33±41.63 Units
  Serum parameters GPT: 859.18±50.51 Units
  hepatoprotective activity percent, ALP: (68.76) percent
  hepatoprotective activity percent, Bilirubin: (41.66) percent
  hepatoprotective activity percent, GOT: (38.42) percent
  hepatoprotective activity percent, GPT: (46.59) percent
  hepatoprotective activity percent, Glutathione: (21.51) percent
  hepatoprotective activity percent, Lipid peroxidation: (39.93) percent
  hepatoprotective activity percent, Triglycerides: (42.95) percent
